What was measured:
[1] = system: Chenopodium spp., Papaver spp., Polygonum spp., Veronica spp. or Viola spp.; experiment: Post-emergence effect on weeds (greenhouse pot test, visual scoring); format: in vivo, monocotyledonous and dicotyledonous weeds; settings: treated at three-leaf stage; visual scoring after about 3 to 4 weeks; application rate of 0.5 kg and less of active substance per hectare
[2] = system: Cyperus spp., Echinochloa spp., Digitaria spp., Sagitaria spp. and Scirpus spp.; experiment: Action on harmful plants in rice (paddy rice conditions, visual scoring); format: in vivo, typical rice weeds (gramineous and broad-leaved); settings: applied into the dammed water, visual scoring about three weeks after application
Text: Transplanted and sown rice and also typical rice weeds (gramineous and broad-leaved) are cultivated in closed plastic pots in a greenhouse to the three-leaf stage (Echinochloa crus-galli 1.5-leaf) under paddy rice conditions (dammed height of water: 2-3 cm). This is followed by treatment with the compounds according to the invention. […] After this treatment, the test plants are set up in a greenhouse under optimum growth conditions and are maintained in this way throughout the test period.

Compound	herbicidal activity post-emergence against harmful plants [1]	herbicidal activity against harmful plants which are typical for rice crops [2]
C#Cc1ccc(CNc2nc(N)nc(C(C)(C)F)n2)cc1 [Product P16.1580]	very good herbicidal activity	very good herbicidal activity
C#Cc1ccc(C(C)Nc2nc(N)nc(C(C)(C)F)n2)cc1F (centres unmarked) [Product P17.1620]	very good herbicidal activity	very good herbicidal activity
CC(Nc1nc(N)nc(C(C)(C)F)n1)c1cc(F)c(C2CC2)c(F)c1 (centres unmarked) [Product P17.960]	very good herbicidal activity	very good herbicidal activity
C#Cc1cc(C(Nc2nc(N)nc(C(C)(C)F)n2)C2CC2)ccc1F (centres unmarked) [Product P19.309]	very good herbicidal activity	very good herbicidal activity
CC#Cc1c(C)cc(C(C)Nc2nc(N)nc(C(C)(C)F)n2)cc1C (centres unmarked) [Product P17.424]	very good herbicidal activity	very good herbicidal activity
Cc1nc(N)nc(NC(C)c2ccc(F)c(C(F)=C(F)F)c2)n1 (centres unmarked) [Product P2.5]	very good herbicidal activity	very good herbicidal activity
CCC(F)c1nc(N)nc(NC(C)c2cc(F)c(C(F)=C(F)F)c(F)c2)n1 (centres unmarked) [Product P27.49]	very good herbicidal activity	very good herbicidal activity
Cc1nc(N)nc(NC(C)c2ccc(C3CC3)cc2)n1 (centres unmarked) [Product P2.1604]	very good herbicidal activity	very good herbicidal activity
CC(C)(F)c1nc(N)nc(NCc2ccc(C(F)=C(F)F)cc2)n1 [Product P16.1568]	very good herbicidal activity	very good herbicidal activity
CC#Cc1cc(CNc2nc(N)nc(CC)n2)ccc1F [Product P6.384]	very good herbicidal activity	very good herbicidal activity
CC#Cc1c(F)cc(CNc2nc(N)nc(CC)n2)cc1F [Product P6.428]	very good herbicidal activity	very good herbicidal activity
CCC(F)c1nc(N)nc(NC(C)c2cccc(C3CC3)c2)n1 (centres unmarked) [Product P27.1603]	very good herbicidal activity	very good herbicidal activity
C#Cc1ccc(C(C)Nc2nc(N)nc(C(C)F)n2)cc1F (centres unmarked) [Product P22.1620]	very good herbicidal activity	very good herbicidal activity
C#Cc1cc(CNc2nc(N)nc(C(C)(C)F)n2)ccc1F [Product P16.309]	very good herbicidal activity	very good herbicidal activity
CC#Cc1cccc(CNc2nc(N)nc(C(C)C)n2)c1 [Product P11.1582]	very good herbicidal activity	very good herbicidal activity
CC(C)(F)c1nc(N)nc(NCc2ccc(C3CC3)cc2)n1 [Product P16.1604]	very good herbicidal activity	very good herbicidal activity

Compound	herbicidal activity post-emergence against harmful plants [1]	herbicidal activity against harmful plants which are typical for rice crops [2]
CCC(F)c1nc(N)nc(NC(C)c2ccc(F)c(C(F)=C(F)F)c2)n1 (centres unmarked) [Product P27.5]	very good herbicidal activity	very good herbicidal activity
CCc1nc(N)nc(NC(C)c2cccc(C3CC3)c2)n1 (centres unmarked) [Product P7.1603]	very good herbicidal activity	very good herbicidal activity
CC#Cc1c(F)cc(CNc2nc(N)nc(C(C)(C)F)n2)cc1F [Product P16.428]	very good herbicidal activity	very good herbicidal activity
CCC(F)c1nc(N)nc(NC(c2ccc(C(F)=C(F)F)cc2)C2CC2)n1 (centres unmarked) [Product P29.1568]	very good herbicidal activity	very good herbicidal activity
CCc1nc(N)nc(NCc2ccc(C3CC3)cc2)n1 [Product P6.1604]	very good herbicidal activity	very good herbicidal activity
CC(C)(F)c1nc(N)nc(NC(c2cccc(C3CC3)c2)C2CC2)n1 (centres unmarked) [Product P19.1603]	very good herbicidal activity	very good herbicidal activity
C#Cc1cccc(CNc2nc(C)nc(N)n2)c1 [Product P1.1579]	very good herbicidal activity	very good herbicidal activity
C#Cc1c(F)cc(CNc2nc(N)nc(C(F)CC)n2)cc1F (centres unmarked) [Product P26.352]	very good herbicidal activity	very good herbicidal activity
C#Cc1cc(C(C)Nc2nc(N)nc(C(C)(C)F)n2)ccc1F (centres unmarked) [Product P17.309]	very good herbicidal activity	very good herbicidal activity
C#Cc1ccc(C(C)Nc2nc(N)nc(CC)n2)cc1C (centres unmarked) [Product P7.335]	very good herbicidal activity	very good herbicidal activity
C#Cc1ccc(CNc2nc(N)nc(C(C)F)n2)cc1 (centres unmarked) [Product P21.1580]	very good herbicidal activity	very good herbicidal activity
CCC(F)c1nc(N)nc(NC(C)c2ccc(C(F)=C(F)F)cc2)n1 (centres unmarked) [Product P27.1568]	very good herbicidal activity	very good herbicidal activity
CC(C)(F)c1nc(N)nc(NC(c2ccc(C3CC3)cc2)C2CC2)n1 (centres unmarked) [Product P19.1604]	very good herbicidal activity	very good herbicidal activity
CC(F)c1nc(N)nc(NCc2cccc(C(F)=C(F)F)c2)n1 (centres unmarked) [Product P21.1567]	very good herbicidal activity	very good herbicidal activity
CC#Cc1cc(CNc2nc(N)nc(C(F)CC)n2)ccc1F (centres unmarked) [Product P26.384]	very good herbicidal activity	very good herbicidal activity

From patent US20030224942A1, “Alkylamino-1,3,5-triazines, processes for their preparation and their use as herbicides and plant growth regulators” (priority 2001, published 2003)
